Source: patent US9669003B2, “Use of flavone and flavanone derivatives in preparation of sedative and hypnotic drugs” (priority 2012, dated 2017)
Marks after values point to notes of the source that are not given here.

Columns and labels:
Format in all cases: in vivo
Kunming mice [1] = assay: Influence on autonomic activity of normal mice (ZIL-2 mice autonomic activity meter, counts within 10 min); details: intragastric, x ± s, n = 10; for Times of activities in 1 h after drug administration/10 min: 1 h after administration; for Times of activities in 2 h after drug administration/10 min: 2 h after administration; for Times of activities in 24 h after drug administration/10 min: 24 h after administration
Summary of the method: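 Activity counts during a 10-min window were taken at 1, 2 and 24 h after dosing in groups of 10 mixed-sex Kunming mice. Compounds were given in 0.5% CMC-Na at 25, 50 or 100 mg/kg. Statistics used Levene's homogeneity test, ANOVA and Dunnett's multiple comparisons.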

Kunming mice [2] = assay: Influence on hypnosis effect with pentobarbital sodium doses below the threshold (25 mg/kg i.p.); details: pentobarbital sodium 25 mg/kg i.p. 60 min later, sleep observed in 30 min, n = 10
Summary of the method: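 Percentage of mice sleeping within 30 min after subthreshold pentobarbital sodium (25 mg/kg i.p.), defined by loss of righting reflex over 1 min, analysed by χ2. Compound in 0.5% CMC-Na given intragastrically at 25/50/100 mg/kg 60 min before; groups of 10 Kunming mice, both sexes.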

Kunming mice [3] = assay: Influence on hypnosis effect with pentobarbital sodium doses at the threshold (50 mg/kg i.p.); details: pentobarbital sodium 50 mg/kg i.p. 60 min later, x ± s, n = 10
Summary of the method: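 Pentobarbital sodium (0.3%, 50 mg/kg i.p.) injected 60 min after a single intragastric dose (25, 50, 100 mg/kg, 0.5% CMC-Na vehicle) in Kunming mice, 10 per group, sexes balanced. Onset and length of sleep (righting reflex lost over 1 min) analysed by ANOVA; sleeping incidence by χ2 test.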

[4] = test drug 25 mg/kg intragastric single dose
[5] = test drug 50 mg/kg intragastric single dose
[6] = test drug 100 mg/kg intragastric single dose
[7] = 25 mg/kg intragastric single dose
[8] = 50 mg/kg intragastric single dose
[9] = 100 mg/kg intragastric single dose

SMILES	Times of activities in 1 h after drug administration/10 min (Kunming mice [1]; 25 mg/kg)	Times of activities in 2 h after drug administration/10 min (Kunming mice [1]; 25 mg/kg)	Times of activities in 24 h after drug administration/10 min (Kunming mice [1]; 25 mg/kg)	Times of activities in 1 h after drug administration/10 min (Kunming mice [1]; 50 mg/kg)	Times of activities in 2 h after drug administration/10 min (Kunming mice [1]; 50 mg/kg)	Times of activities in 24 h after drug administration/10 min (Kunming mice [1]; 50 mg/kg)	Times of activities in 1 h after drug administration/10 min (Kunming mice [1]; 100 mg/kg)	Times of activities in 2 h after drug administration/10 min (Kunming mice [1]; 100 mg/kg)	Times of activities in 24 h after drug administration/10 min (Kunming mice [1]; 100 mg/kg)	Number of sleeping animals (Kunming mice [2]; [4])	rate of sleeping (%) (Kunming mice [2]; [4])	Number of sleeping animals (Kunming mice [2]; [5])	rate of sleeping (%) (Kunming mice [2]; [5])	Number of sleeping animals (Kunming mice [2]; [6])	rate of sleeping (%) (Kunming mice [2]; [6])	duration of sleep (Kunming mice [3]; [7]) [min]	time to sleep (Kunming mice [3]; [7]) [min]	duration of sleep (Kunming mice [3]; [8]) [min]	time to sleep (Kunming mice [3]; [8]) [min]	duration of sleep (Kunming mice [3]; [9]) [min]	other results
C=Cc1ccc(-c2cc(=O)c3cc(C#N)c(Cc4ccccc4)c(C=CC)c3o2)cc1[N+](=O)[O-] [Example 32]	332.1 ± 47.8 /10 min	321.3 ± 53.9 /10 min	327.8 ± 93.9 /10 min	270.2 ± 59.3 /10 min	269.3 ± 50.3 /10 min	334.7 ± 95.6 /10 min	245.9 ± 38.8 /10 min	258.9 ± 49.9 /10 min	322.7 ± 88.5 /10 min	3	30%	5	50** %	6	60** %	25.80 ± 22.64	5.38 ± 2.21	46.11 ± 24.53	4.34 ± 1.45	54.78 ± 20.89	time to sleep (Kunming mice [3]; [9]): 3.86 ± 2.35 min
C#Cc1ccc(-c2cc(=O)c3cc(F)c(C(=O)O)c(O)c3o2)cc1CCCCCCCCCCCCCCCCCCCC [Example 33]	304.9 ± 39.2 /10 min	298.2 ± 35.6 /10 min	273.2 ± 80.8 /10 min	266.4 ± 51.6 /10 min	247.1 ± 58.3 /10 min	284.7 ± 78.7 /10 min	179.0 ± 49.1 /10 min	165.8 ± 52.3 /10 min	318.4 ± 80.5 /10 min	5	50** %	6	60** %	7	70*** %	30.43 ± 22.06	4.81 ± 2.37	36.53 ± 13.21	4.62 ± 1.75	51.56 ± 20.75	time to sleep (Kunming mice [3]; [9]): 3.82 ± 1.12 min
CCCc1cc(C2CC(=O)c3c(cc(O)cc3[N+](=O)[O-])O2)cc(-c2ccccc2)c1C1CCSC1 (stereo not drawn) [Example 51]	227.8 ± 75.6 /10 min	231.8 ± 79.8 /10 min	321.6 ± 70.7 /10 min	143.3 ± 64.7 /10 min	130.7 ± 63.2 /10 min	306.3 ± 68.2 /10 min	115.8 ± 34.4 /10 min	108.8 ± 39.4 /10 min	300.4 ± 77.5 /10 min	6	60** %	6	60** %	8	80*** %	49.88 ± 19.09	4.61 ± 1.74	57.61 ± 14.98	3.43 ± 1.99	82.27 ± 15.68	time to sleep (Kunming mice [3]; [9]): 2.71 ± 1.72 min
